Measured values as given in patent US8697739B2, “Bicyclic acetyl-CoA carboxylase inhibitors and uses thereof” (Novartis AG, priority 2010, dated 2014).

target: T1, human acetyl-CoA carboxylase 2 (ACC2) (Homo sapiens, UniProt O00763); test: Acetyl-CoA carboxylase enzyme assay (malonyl-CoA formation by LC/MS/MS); type: biochemical; conditions: recombinant human ACC2 (aa 144-2458); read-out: IC50 ACC2
T1 construct: The cDNA encoding amino acids 144 to 2458 of human acetyl-CoA carboxylase 2; made in house; host or cells: Sf9 insect cells (baculovirus, pFastBac1)
Procedure, shortened: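 Malonyl-CoA formation was read by LC/MS/MS MRM against a [13C3]-malonyl-CoA internal standard, after acetic acid quench. The enzyme was baculovirus/Sf9-expressed human ACC2 residues 144–2458, given 15 minutes room-temperature compound preincubation in HEPES pH 7.5 buffer with MgCl2, citrate and DTT. Substrate solution held 50 μM acetyl-CoA, 120 μM ATP and 2 mM KHCO3.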

T1 sequence (O00763 144-2458): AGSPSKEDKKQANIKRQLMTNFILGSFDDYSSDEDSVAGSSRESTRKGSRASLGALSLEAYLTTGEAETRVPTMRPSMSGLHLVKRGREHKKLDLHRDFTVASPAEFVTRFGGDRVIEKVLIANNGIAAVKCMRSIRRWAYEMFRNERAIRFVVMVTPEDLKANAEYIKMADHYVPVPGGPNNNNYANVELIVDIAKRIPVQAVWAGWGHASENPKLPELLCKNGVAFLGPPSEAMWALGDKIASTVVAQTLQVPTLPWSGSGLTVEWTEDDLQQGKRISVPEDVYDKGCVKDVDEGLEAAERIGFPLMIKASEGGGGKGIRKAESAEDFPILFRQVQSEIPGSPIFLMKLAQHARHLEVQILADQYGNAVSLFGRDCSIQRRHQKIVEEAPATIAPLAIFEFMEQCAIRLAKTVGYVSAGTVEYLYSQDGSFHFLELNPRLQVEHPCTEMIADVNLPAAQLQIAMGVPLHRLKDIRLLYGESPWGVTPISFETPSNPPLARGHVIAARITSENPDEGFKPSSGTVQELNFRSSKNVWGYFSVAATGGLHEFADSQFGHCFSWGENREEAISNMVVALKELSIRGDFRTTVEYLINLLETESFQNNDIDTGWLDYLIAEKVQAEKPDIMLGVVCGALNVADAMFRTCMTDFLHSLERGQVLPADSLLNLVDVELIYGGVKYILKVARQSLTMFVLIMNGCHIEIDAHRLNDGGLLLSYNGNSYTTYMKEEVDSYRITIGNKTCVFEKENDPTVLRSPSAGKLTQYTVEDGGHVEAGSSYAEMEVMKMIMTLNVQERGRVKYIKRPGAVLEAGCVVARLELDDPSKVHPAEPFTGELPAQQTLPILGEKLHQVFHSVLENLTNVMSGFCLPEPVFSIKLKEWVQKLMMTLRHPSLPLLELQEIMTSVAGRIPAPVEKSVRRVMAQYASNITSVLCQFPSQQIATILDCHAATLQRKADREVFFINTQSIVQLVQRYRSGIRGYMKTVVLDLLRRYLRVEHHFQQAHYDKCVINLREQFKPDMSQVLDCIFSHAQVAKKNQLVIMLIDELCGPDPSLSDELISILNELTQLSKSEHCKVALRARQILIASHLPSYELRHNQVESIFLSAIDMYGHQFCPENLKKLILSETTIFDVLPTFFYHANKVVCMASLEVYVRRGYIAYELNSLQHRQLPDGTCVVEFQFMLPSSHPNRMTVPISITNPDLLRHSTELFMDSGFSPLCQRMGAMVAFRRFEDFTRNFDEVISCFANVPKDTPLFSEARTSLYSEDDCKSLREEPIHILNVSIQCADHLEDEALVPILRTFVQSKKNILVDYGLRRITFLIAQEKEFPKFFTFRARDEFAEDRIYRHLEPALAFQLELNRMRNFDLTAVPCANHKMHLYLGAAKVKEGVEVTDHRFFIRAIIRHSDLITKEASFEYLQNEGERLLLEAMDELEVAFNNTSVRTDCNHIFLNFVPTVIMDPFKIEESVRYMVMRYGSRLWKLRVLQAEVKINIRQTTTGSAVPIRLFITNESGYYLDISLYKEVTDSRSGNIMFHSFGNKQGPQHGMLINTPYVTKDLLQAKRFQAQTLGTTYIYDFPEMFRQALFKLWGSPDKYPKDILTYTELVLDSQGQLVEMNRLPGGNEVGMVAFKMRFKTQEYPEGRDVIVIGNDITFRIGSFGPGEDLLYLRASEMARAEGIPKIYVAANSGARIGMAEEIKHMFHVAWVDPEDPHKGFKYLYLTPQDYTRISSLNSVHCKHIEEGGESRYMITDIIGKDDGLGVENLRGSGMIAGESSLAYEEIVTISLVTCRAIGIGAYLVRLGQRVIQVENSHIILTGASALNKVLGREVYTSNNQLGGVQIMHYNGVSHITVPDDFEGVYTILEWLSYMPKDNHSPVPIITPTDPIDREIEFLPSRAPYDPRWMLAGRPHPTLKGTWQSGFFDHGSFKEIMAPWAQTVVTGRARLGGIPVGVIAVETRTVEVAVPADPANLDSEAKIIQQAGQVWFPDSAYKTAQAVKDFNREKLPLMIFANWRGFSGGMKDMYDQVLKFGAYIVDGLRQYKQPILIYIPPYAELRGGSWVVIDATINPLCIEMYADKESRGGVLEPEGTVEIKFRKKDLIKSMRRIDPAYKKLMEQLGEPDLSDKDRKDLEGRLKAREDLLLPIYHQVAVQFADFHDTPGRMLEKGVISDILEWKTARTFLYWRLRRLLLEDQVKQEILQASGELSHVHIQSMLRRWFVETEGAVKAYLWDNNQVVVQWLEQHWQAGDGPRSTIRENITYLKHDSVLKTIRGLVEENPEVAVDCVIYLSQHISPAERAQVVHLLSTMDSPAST

| SMILES | IC50 |
| --- | --- |
| CC(C)OC(=O)c1ccc(NS(=O)(=O)c2ccc3nc(-c4cccc(O)c4)[nH]c3c2)cc1 [Example 511, isopropyl 4-(2-(3-hydroxyphenyl)-1H-benzo[d]imidazole-6-sulfonamido)benzoate] | 1050 nM |
| CCCOC(=O)c1ccc(OS(=O)(=O)c2ccc3nc(-c4ccccc4)[nH]c3c2)cc1 [Example 493, propyl 4-(2-phenyl-1H-benzo[d]imidazol-6-ylsulfonyloxy)benzoate] | > 139000 nM |
| O=C([C@H]1CC[C@H](NS(=O)(=O)c2ccc3[nH]c(-c4ccccc4)nc3c2)CC1)N1CCC2CCCCC2C1 (stereo partly drawn) [Example 624, N-((1r-4r)-4-(decahydroisoquinoline-2-carbonyl)cyclohexyl)-2-phenyl-1H-benzo[d]imidazole-5-sulfonamide] | 246 nM |
| CC(C)OC(=O)c1ccc(NS(=O)(=O)c2ccc3nc(-c4ccc(C(C)C)cc4)[nH]c3c2)cc1 [Example 506, isopropyl 4-(2-(4-isopropylphenyl)-1H-benzo[d]imidazole-6-sulfonamido)benzoate] | 1950 nM |
| Cn1c(C2CC2)c(C#N)c2ccc(S(=O)(=O)N[C@H]3CC[C@H](C(=O)N4CCC[C@@H]4C(F)(F)F)CC3)cc21 [Example 389, 3-cyano-2-cyclopropyl-1-methyl-N-((1R,4r)-4-((R)-2-(trifluoromethyl)pyrrolidine-1-carbonyl)cyclohexyl)-1H-indole-6-sulfonamide] | 15 nM |
| CC(C)(C)OC(=O)N1CCN(C(=O)[C@H]2CC[C@H](NS(=O)(=O)c3cnc4ccccc4c3)CC2)[C@@H](c2ccccc2)C1 [Example 84, (S)-tert-butyl 3-phenyl-4-((1r,4S)-4-(quinoline-3-sulfonamido)cyclohexanecarbonyl)piperazine-1-carboxylate] | 45 nM |
| Cn1c(-c2ccccc2)cc2ccc(S(=O)(=O)N[C@H]3CC[C@H](C(=O)N4CCN[C@H](C(F)(F)F)C4)CC3)cc21 [Example 331, 1-methyl-2-phenyl-N-((1S,4r)-4-((S)-3-(trifluoromethyl)piperazine-1-carbonyl)cyclohexyl)-1H-indole-6-sulfonamide] | 25 nM |
| Cc1nc2cc(S(=O)(=O)NC3CCC(c4nnc(C(C)C)o4)CC3)ccc2[nH]1 (stereo not drawn) [Example 613, N-((1r,4r)-4-(5-isopropyl-1,3,4-oxadiazol-2-yl)cyclohexyl)-2-methyl-1H-benzo[d]imidazole-5-sulfonamide] | 39600 nM |
| COc1ccc(Nc2nc3cc(S(=O)(=O)N[C@H]4CC[C@H](c5nnc(C(C)C)o5)CC4)ccc3[nH]2)cc1 [Example 594, N-((1r,4r)-4-(5-isopropyl-1,3,4-oxadiazol-2-yl)cyclohexyl)-2-(4-methoxyphenylamino)-1H-benzo[d]imidazole-5-sulfonamide] | 202 nM |
| Cn1c(-c2ccccc2)cc2cc(S(=O)(=O)N[C@H]3CC[C@H](C(=O)N4CC(C(=O)O)CCC4c4ccccc4)CC3)ccc21 (stereo partly drawn) [Example 90, 1-((1r,4r)-4-(1-methyl-2-phenyl-1H-indole-5-sulfonamido)cyclohexanecarbonyl)-6-phenylpiperidine-3-carboxylic acid] | 260 nM |
| CC(C)OC(=O)c1ccc(NS(=O)(=O)c2ccc3[nH]c(-c4ccc(CNCc5ccccc5)cc4)nc3c2)cc1 [Example 560, isopropyl 4-(2-(4-((benzylamino)methyl)phenyl)-1H-benzo[d]imidazole-5-sulfonamdo)benzoate] | 397 nM |
| CC(=O)c1cccc(Nc2nc3cc(S(=O)(=O)Nc4ccc(C(=O)OC(C)C)cc4)ccc3[nH]2)c1 [Example 541, isopropyl 4-(2-(3-acetylphenylamino)-1H-benzo[d]imidazole-5-sulfonamido)benzoate] | 86 nM |
| Cc1cc(CO)ccc1-c1cc2ccc(S(=O)(=O)N[C@H]3CC[C@H](C(=O)N4CCOCC4)CC3)cc2[nH]1 [Example 308, 2-(4-(hydroxymethyl)-2-methylphenyl)-N-((1r,4r)-4-(morpholine-4-carbonyl)cyclohexyl)-1H-indole-6-sulfonamide] | 60 nM |
| O=S(=O)(N[C@H]1CC[C@H](c2nnc(C3CCCCC3)o2)CC1)c1ccc2c(c1)CNCC2 [Example 685, N-((1r,4r)-4-(5-cyclohexyl-1,3,4-oxadiazol-2-yl)cyclohexyl)-1,2,3,4-tetrahydroisoquinoline-7-sulfonamide] | > 35000 nM |

Other lines, results leading:

| IC50 | SMILES |
| --- | --- |
| 20 nM | CCOc1ccc2cc(S(=O)(=O)N[C@H]3CC[C@H](C(=O)N4CCNC[C@@H]4c4ccccc4)CC3)ccc2n1 [Example 234, 2-ethoxy-N-((1S,4r)-4-((S)-2-phenylpiperazine-1-carbonyl)cyclohexyl)quinoline-6-sulfonamide] |
| 183 nM | C[C@@H](NC(=O)[C@H]1CC[C@H](NS(=O)(=O)c2ccc3c(c2)N(C)C(=O)CO3)CC1)c1ccc(F)cc1 [Example 156, (1r,4R)-N-((R)-1-(4-fluorophenyl)ethyl)-4-(4-methyl-3-oxo-3,4-dihydro-2H-benzo[b][1,4]oxazine-6-sulfonamido)cyclohexanecarboxamide] |
| 240 nM | C[C@H]1CN(C)CCN1C(=O)[C@H]1CC[C@H](NS(=O)(=O)c2ccc3cc(-c4ccccc4)n(C)c3c2)CC1 [Example 412, N-((1S,4r)-4-((S)-2,4-dimethylpiperazine-1-carbonyl)cyclohexyl)-1-methyl-2-phenyl-1H-indole-6-sulfonamide] |
| 66 nM | Cn1ccc2cc(S(=O)(=O)N[C@H]3CC[C@H](C(=O)N[C@H](CO)c4ccccc4)CC3)ccc21 [Example 670, (1r,4S)-N-((S)-2-hydroxy-1-phenylethyl)-4-(1-methyl-1H-indole-5-sulfonamido)cyclohexanecarboxamide] |
| 110 nM | CC1CCc2cc(S(=O)(=O)N[C@H]3CC[C@H](C(=O)N[C@H](C)c4ccc(F)cc4)CC3)ccc2N1 (stereo partly drawn) [Example 169, (1r,4R)-N-((R)-1-(4-fluorophenyl)ethyl)-4-(2-methyl-1,2,3,4-tetrahydroquinoline-6-sulfonamido)cyclohexanecarboxamide] |
| 10 nM | Cn1c(-c2ccccc2)cc2ccc(S(=O)(=O)N[C@H]3CC[C@H](C(=O)N4CCCC(C(C)(C)O)C4)CC3)cc21 (stereo partly drawn) [Example 378, N-((1r,4r)-4-(3-(2-hydroxypropan-2-yl)piperidine-1-carbonyl)cyclohexyl)-1-methyl-2-phenyl-1H-indole-6-sulfonamide] |
| < 10 nM | C[C@@H](NC(=O)[C@H]1CC[C@H](NS(=O)(=O)c2ccc3[nH]c(Nc4ccc(N5CCOCC5)nc4)nc3c2)CC1)c1ccccc1 [Example 571, (1r,4R)-4-(2-(6-morpholinopyridin-3-ylamino)-1H-benzo[d]imidazole-5-sulfonamido)-N-((R)-1-phenylethyl)cyclohexanecarboxamide] |
| 149 nM | C[C@@H](NC(=O)[C@H]1CC[C@H](NS(=O)(=O)c2cccc3nc(-c4ccccc4)cn23)CC1)c1ccc(F)cc1 [Example 65, (1r,4R)-N-((R)-1-(4-fluorophenyl)ethyl)-4-(2-phenylimidazo[1,2-a]pyridine-5-sulfonamido)cyclohexanecarboxamide] |
| 15 nM | C[C@@H]1CN(C(=O)[C@H]2CC[C@H](NS(=O)(=O)c3ccc4cc(-c5ccccc5)[nH]c4c3)CC2)C[C@H](C)O1 [Example 475, N-((1R,4r)-4-((2S,6R)-2,6-dimethylmorpholine-4-carbonyl)cyclohexyl)-2-phenyl-1H-indole-6-sulfonamide] |
| 100 nM | C[C@@H](NC(=O)[C@H]1CC[C@H](NS(=O)(=O)c2ccc3[nH]c(-c4cccc(C(=O)O)c4)nc3c2)CC1)c1ccccc1 [Example 279, 3-(5-(N-((1R,4r)-4-((R)-1-phenylethylcarbamoyl)cyclohexyl)sulfamoyl)-1H-benzo[d]imidazol-2-yl)benzoic acid] |
| < 10 nM | Cn1c(-c2ccc(CCC(=O)O)cc2)cc2ccc(S(=O)(=O)N[C@H]3CC[C@H](C(=O)N4CCCC4c4ccc(F)cc4)CC3)cc21 (stereo partly drawn) [Example 387, 3-(4-(6-(N-((1r,4r)-4-(2-(4-fluorophenyl)pyrrolidine-1-carbonyl)cyclohexyl)sulfamoyl)-1-methyl-1H-indol-2-yl)phenyl)propanoic acid] |
| 10 nM | C[C@@H](NC(=O)[C@H]1CC[C@H](NS(=O)(=O)c2cnc3c(c2)NCCS3)CC1)c1ccc(F)cc1 [Example 35, (1r,4R)-4-(2,3-dihydro-1H-pyrido[2,3-b][1,4]thiazine-7-sulfonamido)-N—((R)-1-(4-fluorophenyl)ethyl)cyclohexanecarboxamide] |
| 80 nM | CCOc1ccc2cc(S(=O)(=O)N[C@H]3CC[C@H](C(=O)N4CCNCC4c4ccccc4)CC3)ccc2n1 (stereo partly drawn) [Example 204, 2-ethoxy-N-((1r,4r)-4-(2-phenylpiperazine-1-carbonyl)cyclohexyl)quinoline-6-sulfonamide] |
| 60 nM | COC(=O)C1CCc2ccc(S(=O)(=O)N[C@H]3CC[C@H](C(=O)N[C@H](C)c4ccc(F)cc4)CC3)cc2N1C (stereo partly drawn) [Example 224, methyl 7-(N-((1R,4r)-4-((R)-1-(4-fluorophenyl)ethylcarbamoyl)cyclohexyl)sulfamoyl)-1-methyl-1,2,3,4-tetrahydroquinoline-2-carboxylate] |
| 15 nM | C[C@H]1COCCN1C(=O)[C@H]1CC[C@H](NS(=O)(=O)c2ccc3cc(-c4ccc(CCC(=O)O)cc4)n(C)c3c2)CC1 [Example 427, 3-(4-(1-methyl-6-(N-((1S,4r)-4-((S)-3-methylmorpholine-4-carbonyl)cyclohexyl)sulfamoyl)-1H-indol-2-yl)phenyl)propanoic acid] |
| 48 nM | C[C@@H](NC(=O)[C@H]1CC[C@H](NS(=O)(=O)c2ccc3nc(-c4ccccc4)oc3c2)CC1)c1ccc(F)cc1 [Example 11, N—((R)-1-(4-fluorophenyl)ethyl)-4-(2-phenylbenzo[d]oxazole-6-sulfonamido)cyclohexanecarboxamide] |
